# Results as given in patent publication US20260183295A1, “METHODS AND COMPOSITIONS FOR TREATING CANCER” (Onconova Therapeutics, Inc., priority 2022, published 2026).
# Legend:
# CCL5 = assay: qPCR of T-cell recruiting chemokine mRNA, PyMT cells; format: cell-based, mouse
# Hs578t cells [1] = assay: Wound healing assay (24 Hour Migration Assay); format: cell-based; conditions: 1.0 μM and 10.0 μM
# Method: (§1) A cell-free area was created in a confluent monolayer by physical exclusion or by removing the cells from the area through mechanical, thermal or chemical damage. The exposure to the cell-free area induced the cells to migrate into the gap. The rate of gap closure was measured and plotted.
# MDA-MB-231 cells [2] = assay: Wound healing assay (24 Hour Migration Assay); format: cell-based; conditions: MDA-MB-231, 1.0 μM and 10.0 μM
# Method: as §1
# Hs578t cells [3] = assay: Cancer cell growth, 48 hours; format: cell-based; conditions: 5 μM or 10 μM, compared to Comparator 1 (FIG. 1)
# Method: At the end of 48 hours, growth of cells was measured using standard techniques.
# PyMT cells [4] = assay: Growth and recovery, 6 days treatment and 4 days recovery, cell counts; format: cell-based, mouse; conditions: 6 days treatment, counted on days 0, 3, 6, 10
# Excerpt: Following 6 days of treatment, the drug treatments were stopped and the cells allowed to recover for 4 days. Cell numbers were counted on days 0, 3, 6, and 10, and the results plotted.
# PyMT cells [5] = assay: MTT cell viability; format: cell-based, mouse; conditions: 24, 48 and 72 hours; Compound 1 2.5, 5, 10 μM; Comparator 1 5 μM
# MDA-MB-231 cells [6] = assay: Transmission electron microscopy of cellular morphology; format: cell-based; conditions: 5 μM, 24 hours, compared to DMSO
# Method: The effect of Compound 1 (5 μM) treatment for 24 hours on cellular morphology was assessed using transmission electron microscopy (TEM) and compared to DMSO. FIG. 27 and FIG. 28 show representative TEM images of MDA-MB-231 cells treated with DMSO or Compound 1.
# MDA-MB-231 = assay: Cell viability after 72 hours treatment; format: cell-based; conditions: MDA-MB-231 (TNBC)
# Method: (§2) The effects on the different treatment conditions on BUB 1 levels and PARP cleavage were also assessed. For both MNA-MB-231 cells, Compound 1 alone or with HCQ or SBI decreased BUB1 levels and cleaved PARP with […] decreases in cell viability observed for all treatments except Compound 1+SBI in MMA-MB-231 cells. The effects of Compound 1 with or without autophagy inhibitors was less pronounced in HCC-1937 cells.
# MDA-MB-468 = assay: Cell viability after 72 hours treatment; format: cell-based; conditions: MDA-MB-468 (TNBC)
# Method: as §2
# HCC-1937 = assay: Cell viability after 72 hours treatment; format: cell-based; conditions: HCC-1937 (TNBC)
# Method: as §2
# CXCL10 = assay: qPCR of T-cell recruiting chemokine mRNA, PyMT cells; format: cell-based, mouse
# pRb = assay: Western blot after 2 h treatment, MDA-MB-231; format: cell-based; conditions: 5 μM, relative to DMSO control
# Method: (§3) Following treatment, a sample of each of the three treatments was analyzed by Western Blot for expression of phosphoprotein targets.
# pRb pSer807/811 = assay: Western blot after 2 h treatment, MDA-MB-231; format: cell-based; conditions: 5 μM, relative to DMSO control
# Method: as §3
# NUAK1 = target: T1, NUAK1 (Homo sapiens, UniProt O60285); assay: NUAK1 In Vitro Kd, kinase binding assay (qPCR); conditions: second In Vitro column of Table 8
# T1 sequence (O60285 1-661): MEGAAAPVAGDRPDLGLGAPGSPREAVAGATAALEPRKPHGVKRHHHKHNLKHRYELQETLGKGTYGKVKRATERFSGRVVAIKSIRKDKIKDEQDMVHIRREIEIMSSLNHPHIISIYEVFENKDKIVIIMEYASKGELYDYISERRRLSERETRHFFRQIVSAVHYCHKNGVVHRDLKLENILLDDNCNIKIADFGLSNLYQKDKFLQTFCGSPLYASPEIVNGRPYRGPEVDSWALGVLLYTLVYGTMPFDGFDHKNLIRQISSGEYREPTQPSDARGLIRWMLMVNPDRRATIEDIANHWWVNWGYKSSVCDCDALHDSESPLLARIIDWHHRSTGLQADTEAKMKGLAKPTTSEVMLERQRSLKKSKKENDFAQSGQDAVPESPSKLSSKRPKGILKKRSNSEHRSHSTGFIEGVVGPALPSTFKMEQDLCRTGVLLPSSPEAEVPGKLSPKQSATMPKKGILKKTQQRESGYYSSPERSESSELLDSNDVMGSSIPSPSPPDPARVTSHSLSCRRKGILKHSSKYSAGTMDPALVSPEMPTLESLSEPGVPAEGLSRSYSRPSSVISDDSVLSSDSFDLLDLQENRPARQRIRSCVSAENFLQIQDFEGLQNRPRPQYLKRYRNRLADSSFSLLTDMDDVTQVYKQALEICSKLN
# Method: Kinase-tagged T7 phage strains were prepared in an E. coli host derived from the BL21 strain. E. coli were grown to log-phase and infected with T7 phage and incubated with shaking at 32° C. until lysis. The lysates were spun by centrifuge and filtered to remove cell debris. The remaining kinases were produced in HEK-293 cells and subsequently tagged with DNA for qPCR detection. […] The liganded beads were blocked with excess biotin and washed with blocking buffer (SeaBlock (Pierce), 1% BSA, 0.05% Tween 20, 1 mM DTT) to remove unbound ligand and to reduce non-specific binding. […] Test compounds were prepared as 111× stocks in 100% DMSO. Kds were determined using an 11-point 3-fold compound dilution series with three DMSO control points.
# The compounds were then diluted directly into the assays such that the final concentration of DMSO was 0.9%. All reactions performed in polypropylene 384-well plate. Each was a final volume of 0.02 ml. […] The kinase concentration in the eluates was measured by qPCR. Binding constants (Kds) were calculated with a standard dose-response curve using the Hill equation: Response=Background+Signal−Background 1+(KdHill Slope/DoseHill Slope) The Hill Slope was set to −1. Curves were fitted using a non-linear least square fit with the Levenberg-Marquardt algorithm.
smiles,measurement,setting,value
"CN1CCN(c2ccc(Nc3ncc4cc(C#N)c(=O)n(C5CCCC5)c4n3)cc2)CC1 [Compound 1, 8-cyclopentyl-2-((4-(4-methylpiperazin-1-yl)phenyl)amino)-7-oxo-7,8-dihydropyrido[2,3-d]pyrimidine-6-carbonitrile]",time of peak CCL5 mRNA levels,CCL5,~48 h
same,CCL5 mRNA levels,"CCL5; 24, 48 and 72 hours",large increase
same,cell migration (rate of gap closure),Hs578t cells [1],inhibited cell migration significantly more than Comparator 1
same,cell migration (rate of gap closure),MDA-MB-231 cells [2],inhibited cell migration significantly more than Comparator 1
same,growth of cells,Hs578t cells [3],significantly inhibited
same,"PyMT cell numbers, treatment and recovery phase",PyMT cells [4],small decrease in cell number at day 3 that then increased throughout the rest of the experiment
same,cell death (MTT cell viability),PyMT cells [5],increased cell death relative to DMSO
same,cellular morphology (TEM),MDA-MB-231 cells [6],extensive vacuolization
same,72 h-cell viability decrease,MDA-MB-231,75%
same,72 h-cell viability decrease,MDA-MB-468,80%
same,72 h-cell viability decrease,HCC-1937,25%
same,time of peak CXCL10 mRNA levels,CXCL10,~48 h
same,CXCL10 mRNA levels,"CXCL10; 24, 48 and 72 hours",large increase
same,pRb levels,pRb,decreased pRb levels
same,phosphorylation of pRb at Ser807/811,pRb pSer807/811,decreased phosphorylation
same,Kd,NUAK1,19 nM
